Assays:
Type in all cases: binding
[1] = target: T1, CtUGGTGT24 (UDP-glucose glycoprotein glucosyltransferase, catalytic domain) (Thermochaetoides thermophila, UniProt G0SB58); test: […] Å co-crystal structure
T1 sequence (G0SB58 1187-1473): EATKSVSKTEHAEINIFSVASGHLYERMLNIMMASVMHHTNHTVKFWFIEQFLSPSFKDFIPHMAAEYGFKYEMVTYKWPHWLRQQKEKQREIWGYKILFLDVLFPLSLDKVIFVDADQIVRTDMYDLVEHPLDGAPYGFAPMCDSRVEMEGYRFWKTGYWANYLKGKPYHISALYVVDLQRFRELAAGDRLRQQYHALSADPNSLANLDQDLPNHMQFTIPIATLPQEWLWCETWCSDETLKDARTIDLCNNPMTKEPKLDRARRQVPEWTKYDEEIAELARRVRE

[2] = target: human UGGT1 (Homo sapiens, UniProt Q9NYU2); test: STD NMR
human UGGT1, sequence (Q9NYU2 43-1551): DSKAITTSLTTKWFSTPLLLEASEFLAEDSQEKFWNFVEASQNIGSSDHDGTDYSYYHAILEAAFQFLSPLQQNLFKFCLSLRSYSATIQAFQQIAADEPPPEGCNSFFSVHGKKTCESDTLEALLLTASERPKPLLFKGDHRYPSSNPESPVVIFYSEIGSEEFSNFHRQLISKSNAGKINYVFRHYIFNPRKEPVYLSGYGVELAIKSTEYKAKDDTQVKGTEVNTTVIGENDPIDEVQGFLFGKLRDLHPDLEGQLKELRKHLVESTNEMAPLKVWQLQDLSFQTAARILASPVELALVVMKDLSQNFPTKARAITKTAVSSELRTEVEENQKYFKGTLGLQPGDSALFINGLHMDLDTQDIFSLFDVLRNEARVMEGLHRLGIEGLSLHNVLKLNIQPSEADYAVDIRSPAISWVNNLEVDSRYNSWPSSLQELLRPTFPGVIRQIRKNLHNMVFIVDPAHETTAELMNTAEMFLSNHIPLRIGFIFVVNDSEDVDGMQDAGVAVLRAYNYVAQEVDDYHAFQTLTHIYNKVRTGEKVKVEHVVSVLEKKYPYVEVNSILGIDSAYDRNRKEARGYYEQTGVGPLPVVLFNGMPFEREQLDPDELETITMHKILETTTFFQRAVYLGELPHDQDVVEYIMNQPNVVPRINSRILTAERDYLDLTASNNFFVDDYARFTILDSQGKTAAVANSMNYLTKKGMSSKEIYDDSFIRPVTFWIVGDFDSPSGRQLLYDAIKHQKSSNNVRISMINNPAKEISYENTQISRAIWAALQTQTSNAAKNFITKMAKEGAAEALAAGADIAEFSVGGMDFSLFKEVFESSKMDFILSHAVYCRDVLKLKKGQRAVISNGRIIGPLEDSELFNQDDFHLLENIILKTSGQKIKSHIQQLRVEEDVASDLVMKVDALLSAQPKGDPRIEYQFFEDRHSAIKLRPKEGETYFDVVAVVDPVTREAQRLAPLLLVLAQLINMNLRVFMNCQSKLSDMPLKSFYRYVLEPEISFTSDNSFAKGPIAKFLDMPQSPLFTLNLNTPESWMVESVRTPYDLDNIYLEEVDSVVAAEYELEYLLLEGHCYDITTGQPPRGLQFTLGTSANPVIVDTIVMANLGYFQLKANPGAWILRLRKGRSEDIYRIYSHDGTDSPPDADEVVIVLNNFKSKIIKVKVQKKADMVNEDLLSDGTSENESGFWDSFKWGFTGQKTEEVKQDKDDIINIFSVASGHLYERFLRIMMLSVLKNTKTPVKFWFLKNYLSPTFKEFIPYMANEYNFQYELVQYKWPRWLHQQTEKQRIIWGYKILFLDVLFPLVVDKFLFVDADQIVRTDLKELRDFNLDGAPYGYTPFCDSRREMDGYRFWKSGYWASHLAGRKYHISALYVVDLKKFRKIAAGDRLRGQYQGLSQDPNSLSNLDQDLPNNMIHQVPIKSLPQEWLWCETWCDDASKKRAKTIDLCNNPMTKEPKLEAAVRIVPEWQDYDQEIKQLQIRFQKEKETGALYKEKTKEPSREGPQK

[3] = target: T1, CtUGGTGT24 (UDP-glucose glycoprotein glucosyltransferase, catalytic domain); test: co-crystal structure

Row | Kd [1] | Kd [2] | Compound | co-crystal structure (X-ray) [3]
1 | 47 ± 0.7 µM | 613 µM | Oc1ccc(CN2CCOCC2)c2cccnc12 [5M-8OH-Q, 5-[(morpholin-4-yl)methyl]quinolin-8-ol] | 
2 |  |  | O=c1ccn([C@@H]2O[C@H](COP(=O)(O)OP(=O)(O)O[C@H]3O[C@H](CO)[C@@H](O)[C@H](O)[C@H]3F)[C@@H](O)[C@H]2O)c(=O)[nH]1 [U2F] | In the ^U2FCtUGGTGT24 structure (PDB ID 7ZLU) these two water molecules are replaced by an O atom

Source: publication PMC10562782 (iScience, 2023)
